In the NIST ThermoML archive (doi:10.1021/je020145g):
± gives the expanded uncertainty stated by the source.

How the values were obtained:
[1] = Molar enthalpy of transition or fusion; conditions: DSC
[2] = DTA

| Molar enthalpy of transition or fusion ([1]; Crystal 1) | Normal melting temperature ([2]; Crystal 1) | Glass transition temperature ([2]; Glass) | Molar enthalpy of transition or fusion ([1]; Crystal) | Normal melting temperature ([2]; Crystal) | SMILES |
| --- | --- | --- | --- | --- | --- |
| 2.2 ± 0.0789 kcal/mol | 3.28 ± 1 °C | -76.59 ± 0.5 °C |  |  | CCCCn1cc[n+](C)c1.F[P-](F)(F)(F)(F)F [1-butyl-3-methylimidazolium hexafluorophosphate] |
|  |  |  | 4.27 ± 0.134 kcal/mol | 59.7 ± 1 °C | CCn1cc[n+](C)c1.F[P-](F)(F)(F)(F)F [1-ethyl-3-methylimidazolium hexafluorophosphate] |
